Common to all, as to format: functional
Settings in all cases: read-out: ID50 (the source's name)

Experiment [1] is described as follows: Antiproliferative activity against Homo sapiens (human) SW707 cells by SRB assay. On the technique in general: Sulforhodamine B stains cellular protein and so reports cell mass.
Experiment [2] is described as follows: Antiproliferative activity against Homo sapiens (human) HCV29T cells by SRB assay.
Another experiment deals with T47D. Put plainly: Antiproliferative activity against Homo sapiens (human) T47D cells by SRB assay.
A further experiment relates to A549. Put plainly: Antiproliferative activity against Homo sapiens (human) A549 cells by SRB assay.

The record followed here is ChEMBL document CHEMBL3046401, “Synthesis, X-ray structure and antiproliferative activity of 3-benzylthio-4-propargylselenoquinoline” (2010).

Values after ≈ are worked out from the molar mass of the structure shown.

Turning to `C#CC[Se]c1c(SCc2ccccc2)cnc2ccccc12` [3-BENZYLTHIO-4-PROPARGYLSELENOQUINOLINE], the IC50 (in experiment [1]; in experiment [2]; with T47D; in the experiment on A549) was above 100 µg/mL throughout.

Regarding `C#CC[Se]c1c(SC)cnc2ccccc12` [3-METHYLTHIO-4-PROPARGYLSELENOQUINOLINE], the values for the IC50 (in experiment [1]; in experiment [2]; with T47D) were 0.6 µg/mL (≈ 2.05 µM), 1.8 µg/mL (≈ 6.16 µM) and 2.5 µg/mL (≈ 8.55 µM), respectively.

With `C#CCSc1c(SC)cnc2ccccc12` [3-METHYLTHIO-4-PROPARGYLTHIOQUINOLINE], the IC50 turned out to be 17.6 µg/mL (≈ 71.7 µM) in experiment [1], 5.7 µg/mL (≈ 23.2 µM) in experiment [2], 18.4 µg/mL (≈ 75 µM) in the experiment with T47D and 6.8 µg/mL (≈ 27.7 µM) in the experiment on A549.
